One series relates to E. coli 434. The series can be described thus: Recovery of E. coli in tissue: ex vivo adhesion of E. coli to human colon mucosal samples (organ culture). In kind it is cell-based. Particulars: for E coli × 10 6 Recovery on tissue: 4 h culture with E. coli, individual samples 1 and 2; for E coli × 10 6 Standarized 30 mg, Average: mean of 2 samples; for E coli × 10 6 Standarized 30 mg: normalized to 30 mg tissue, individual samples; for E. coli recovery in tissue, Average % over control: control Ec = 100.0%. As to the method: (§1) The aim of this investigation was to determine the effects “ex vivo” of D-fagomine on the adhesion of E. coli to human colon mucosal samples and their possible influence on the release of inflammatory mediators on a range of doses as an indication of the activation of the innate immune response.
(§2) The approach, included the incubation of an E. coli strain with mucosal colonic samples obtained by surgery. The intention was to preserve the whole structure of mucosal samples including multiple cell populations such as epithelial cells and immunocompetent cells (macrophages, dendritic cells, plasma cells and lymphocytes), all of them keeping their original structure and disposition for cell to cell interaction. In other words, the approach was intended for mimicking the “in vivo” conditions of the colon mucosa.
In the design of the study doses of 0, 50, 500 and 5000 μg/ml of D-fagomine were tested.
Pathogenic strains of E coli were used. The main differences of pathogenic strains of E coli vs. other non pathogenic are related to their capacity to avoid the immune system.
(§3) Samples of macroscopically normal colonic mucosa were obtained at surgery from patients undergoing colectomy for colonic cancer. Areas free of disease were collected in ice-cold saline and transferred immediately to the Laboratory of the Digestive Research Unit of Hospital's Vail d'Hebron (Barcelona). After washing with saline, the mucosa was dissected from the muscularis layer and pieces between 25 and 30 mg were placed surface up in culture wells (15 mm diameter wells with 500 μm bottom mesh, Netwell culture systems, Costar, Cambridge, Mass.), and orientated so that the epithelial surface was upper-most. Filters were suspended over wells containing 1.5 ml of RPMI edium (CanSera, Rexdale, Ontario, Canada) supplemented with 10% foetal calf serum (FCS; Gibco-BRL, Eggenstein, Germany), glutamine 2 mM and antibiotics: 100 U/ml penicillin, 100 microg/ml streptomycin and 50 microg/ml gentamycin, (all from Normon, Madrid, Spain). This volume is just for maintaining the humidity of the surface but not for sinking beneath the surface.
(§4) Biopsies were incubated at 37° C. in a 95% O2+5% CO2 atmosphere and stimulated during 1 h with PMA (phorbol-12-myristate-13-acetate) and lonomycin (100/1000 ng/mL), both available from Sigma.
(§5) Thereafter, medium was replaced by fresh RPMI 1640 medium (without glucose) supplemented with 10% FCS and sodium bicarbonate at 24 mmol/L.
(§6) Bacteria strain E. coli ([…]) and fagomine (50, 500 and 5000 μg/mL) were added carefully to the explants. After 4 h of culture of tissues with E. coli, supernatants were collected for measurement of E. coli recovery, release of TNF-α, LDH (viability) and pH. Moreover, the tissues were rinsed, homogenized and assayed for E. coli recovery and LDH (to study tissue viability).
The pathogenic E. coli reference strain (CECT 434, (Migula 1895) Castellani and Chalmers 1919) was provided by Dr. Maria Angeles Calvo (Microbiology Laboratory, Faculty of Veterinary, Autonomous University of Barcelona, Spain)
The day before of the experiment with tissue, the E. coli strain was inoculated in Luria Bertani broth (Pharmacy, Hospital Vail d'Hebron, Autonomous University of Barcelona, Spain) at 37° C. under aerobic conditions for 24 h. The day of the experiment bacteria were harvested in the stationary phase, cell counts in the bacterial suspension were estimated by optical density at 600 nm absorbance, and bacteria were added to the tissue-culture wells at the appropriate dilution.
In order to quantify only the adherent E. coli bacteria, at the end of the culture, tissues were recovered and rinsed with 2 ml of saline in an orbital mixer at low speed during 2 minutes. After rinsing, each tissue was homogenized in 1 ml of saline and dilutions were prepared to quantify the recovery of E. coli in solid agar selective media. […]

A further series deals with TNF-α. The series can be described thus: TNF-α release into the supernatant of human colon mucosa organ culture with E. coli (ELISA). In kind it is cell-based. Conditions: for TNF-alfa (1.5 ml standarized 30 mg) / TNF-alfa/ml: individual samples, listed as Fag; for TNF-alfa (1.5 ml standarized 30 mg, Average): mean of 2 samples; for TNF-alfa/ml: supernatant after 4 h. How it is done: as §1, §2, §3, §4, §5, §6
Concentration of TNF-α in the supernatants was measured using a commercially available ELISA assay system for human citoquine TNF-α (Ready to Set, e-Bioscience). Cytokine concentration is expressed as pg (TNF-α) per 30 mg of tissue.

Series [1] deals with bacteria. Conditions: Gomez L. et al.; Castillo J. A. et al.; cited from earlier work.
For the next series, the system named is colon tissue. Nature of the series: Colon viability (LDH release). In kind it is cell-based, human. How it is done: as §3, §6
To estimate tissue viability, we calculated LDH (lactate-dehydrogenase) activity release in the supernatant. This method was validated by Finnie (Gut 1995). The ratio of LDH activity in the supernatant over total LDH activity in tissue homogenates was calculated and used to estimate the percentage of viable tissue. Tissue samples were homogenized in Tris/HCl (100 mmol/L, pH 7.4) and supernatants were analysed for LDH using the spectrophotometric method. Tissue viability was assessed as the release of LDH per mg of tissue.
On the technique in general: LDH in the medium is a marker of cell lysis.

For series [2] the following is noted: Gomez L. et al. Br. J. Nutr. 2012; cited from earlier work.
Series [3] has as its system bacteria. Particulars: WO2011117362; cited from earlier work.
The conditions of series [4]: Kim H. et al. 2005; cited from earlier work.
[5] abbreviates: D-fagomine 50 μg/ml, listed as Fag.
[6] abbreviates: D-fagomine 500 μg/ml, listed as Fag.
The mark [7] stands for this setting: D-fagomine 50 μg/ml with E. coli.
[8] abbreviates: D-fagomine 500 μg/ml with E. coli.
[9] abbreviates: D-fagomine 5000 μg/ml with E. coli.

Values joined by “and” are separate entries in the source; they are usually repeats but may differ in a detail not shown here. Identical values can stand only once. “Also recorded” adds a separate entry of the source.

`OC[C@H]1NCC[C@@H](O)[C@@H]1O` (stereo in doubt) [D-fagomine, (2R, 3R, 4R)-2-hydroxymethylpiperidine-3,4-diol]: the “Antiadherent effect against E. coli on colon mucosa (in words)” value in the series on E. coli 434 (50, 500 and 5000 μg/ml) was “antiadherent properties against E. coli in a dose dependent manner; also recorded: antiadherent effect against E. coli on the colon epithelium”. Also, the “E coli × 10 6 Recovery on tissue” value is 4 × 10 6 and 4.4 × 10 6 in the series on E. coli 434 (setting [5]); 2.4 × 10 6 and 0.8 × 10 6 in the series with E. coli 434 (setting [6]); 1.6 × 10 6 in the series on E. coli 434 (D-fagomine 5000 μg/ml). For the same molecule, the “E coli × 10 6 Standarized 30 mg, Average” value is reported as 4.22 × 10 6 in the series on E. coli 434 (D-fagomine 50 μg/ml), 1.56 × 10 6 with E. coli 434 (D-fagomine 500 μg/ml) and 1.47 × 10 6 with E. coli 434 (D-fagomine 5000 μg/ml). Also, the “E coli × 10 6 Standarized 30 mg” value in the series with E. coli 434 (setting [5]) is 4.12 × 10 6 and 4.31 × 10 6; with E. coli 434 (setting [6]) it was 2.21 × 10 6 and 0.9 × 10 6; with E. coli 434 (D-fagomine 5000 μg/ml, listed as Fag), 1.4 × 10 6 and 1.55 × 10 6. Besides, the “E. coli recovery in tissue, Average % over control” value in the series with E. coli 434 (D-fagomine 50 μg/ml) came to 56.6%; with E. coli 434 (D-fagomine 500 μg/ml), 21.0%; with E. coli 434 (D-fagomine 50 or 5000 μg/ml) it was 19.8%. In addition, the “TNF-alfa release at 50 μg/mL, times higher than at 500 μg/mL” value in the series with TNF-α (50 μg/mL versus 500 μg/mL) is recorded as 5 times. In addition, in the series on TNF-α (50 μg/mL versus 5000 μg/mL), the “TNF-alfa release at 50 μg/mL, times higher than at 5000 μg/mL” value is recorded as around 8 times. Also, the “Stimulation of TNF-alfa release (in words)” value in the series on TNF-α (50, 500 and 5000 μg/ml with E. coli) was “capacity to stimulate the release of TNF-alfa and that the lower is the dose the more potent is such release; also recorded: stimulating the release of TNF-alfa either with respect to the control with E. coli or with respect to the control without E. coli”. Besides, the “TNF-alfa (1.5 ml standarized 30 mg)” value with TNF-α (setting [7]) was 145.4 pg (TNF-α) per 30 mg of tissue and 164.2 pg (TNF-α) per 30 mg of tissue; with TNF-α (setting [8]), 31.9 pg (TNF-α) per 30 mg of tissue and 28.6 pg (TNF-α) per 30 mg of tissue; in the series on TNF-α (setting [9]), 8.2 pg (TNF-α) per 30 mg of tissue and 18.1 pg (TNF-α) per 30 mg of tissue. In addition, the “TNF-alfa (1.5 ml standarized 30 mg, Average)” value with TNF-α (setting [7]) was 154.8 pg (TNF-α) per 30 mg of tissue; with TNF-α (setting [8]), 30.3 pg (TNF-α) per 30 mg of tissue; in the series with TNF-α (setting [9]), 13.2 pg (TNF-α) per 30 mg of tissue. Besides, the TNF-alfa/ml in the series on TNF-α (setting [7]) is 106.2 mL⁻¹ and 98.8 mL⁻¹; in the series on TNF-α (setting [8]), 20.7 mL⁻¹ and 18.6 mL⁻¹; in the series with TNF-α (setting [9]), 13.8 mL⁻¹ and 5.7 mL⁻¹. In the series with bacteria [1], the “Antimicrobial activity (in words)” value is listed as “do not show antimicrobial activity”. The “Viability LDH” value in the series with colon tissue (E. coli + D-fagomine 50 μg/ml) was determined as 88.20%; with colon tissue (E. coli + D-fagomine 500 μg/ml), 91.47%; in the series on colon tissue (E. coli + D-fagomine 5000 μg/ml) it was 83.88%. The “Effect on viability of the tissue (in words)” value with colon tissue (coculture with E. coli or fagomine) is given as “does not affect the viability of the tissue”. Further, in series [2], the “Postprandial blood glucose level and insulin secretion (in words)” value is “decrease postprandrial blood glucose level without stimulating insulin secretion”. The “Bacterial adherence to mucosal surface (in words)” value with bacteria [3] was “inhibiting bacterial adherence to mucosal surface”.

For `C[C@@H]1O[C@@H](OC[C@H]2O[C@@H](Oc3c(-c4ccc(O)c(O)c4)oc4cc(O)cc(O)c4c3=O)[C@H](O)[C@@H](O)[C@@H]2O)[C@H](O)[C@H](O)[C@H]1O` [rutin], in series [4], the “Stability and deglycosylation in the intestine after oral administration (in words)” value was “stable in the upper intestine, but rapidly deglycosylated to liberate the quercetin at the level of the colon”.

The values are drawn from patent US10233206B2, “D-fagomine for the control of inflammatory processes related to an overactivation of the humoral immune response” (priority 2013, dated 2019).
